Measured values taken from PubChem BioAssay AID743396 (Broad Institute, 2014).
Calls of active or inactive are those of the source.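 How the source made its calls: active means fitted curve reaches a 40% rise in fluorescent cells at or below the top valid dose; inactive means opposite-direction effect, or the rest.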

experiment: autofluorescent compounds in non-GFP fibroblasts, dose response, artefact control for X-chromosome reactivation project, imaging, mTEFS fibroblasts, cherry-pick (AID 743396); details: mTEFS fibroblasts autofluorescence, GFP-channel imaging, 3 days; at 19.5 µM (top of the series);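 further: raw share of Hoechst-counted cells scored GFP positive without control normalization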

| SMILES | % fluorescent cells increase |
| --- | --- |
| O=[N+]([O-])c1ccc(O)c([N+](=O)[O-])c1 | 0% (inactive) |

same assay, conditions: mTEFS fibroblasts autofluorescence, GFP-channel imaging, 3 days; at 19.5 µM (top of the series); cells pretreated with 5-aza-dC

| SMILES | % fluorescent cells increase |
| --- | --- |
| CCC(=O)OCCNc1cc(Sc2nc3ccccc3[nH]2)c2nonc2c1[N+](=O)[O-] | -0.003% (inactive) |
| COc1ccc2c3c(n(C)c2c1)[C@@H](CO)N(Cc1ccccc1OC)CC31CCN(C)CC1 | -0.158% (inactive) |
| C[C@H](CO)N1C[C@H](C)[C@H](CN(C)Cc2ccccc2)Oc2ccc(NS(C)(=O)=O)cc2C1=O | 0.123% (inactive) |
| Cc1cccc(-c2ccc([C@H]3[C@H](CO)N4CCCCN(C(=O)NC(C)C)C[C@@H]34)cc2)c1 | -0.166% (inactive) |
| CC[N+]1=C(C)C(C)(C)c2cc(C)ccc21 | 0.089% (inactive) |
| Cc1[nH]c2ccc(Br)cc2c(=O)c1CN1CCCCCC1 | 0% (inactive) |
| C[C@H]1CN([C@@H](C)CO)C(=O)c2cc(NC(=O)CCCCCC(=O)Nc3ccccc3N)ccc2O[C@H]1CN(C)C(=O)Nc1ccccc1 | 0.017% (inactive) |
| O=C(O)c1cccnc1C(=O)N1CCc2c([nH]c3ccccc23)C1C(F)(F)F (stereo unspecified) | 0.447% (inactive) |
| C[C@H](NC(=O)C[C@H]1CC[C@@H](NC(=O)Cc2ccccn2)[C@@H](CO)O1)c1ccccc1 | 0.008% (inactive) |
| Cc1ccc(S(=O)(=O)Nc2cccc3c2O[C@H](CN(C)C(=O)Nc2cccc4ccccc24)[C@H](C)CN([C@H](C)CO)C3=O)cc1 | 0.048% (inactive) |
| CCCN1CCN(C(=O)C2CCN(c3nnc(C)c4c(C)n(-c5ccc(C)cc5)nc34)CC2)CC1 | 0.895% (inactive) |
| COc1ccc2c(c1)C(C)=CC(C)(C)N2S(=O)(=O)c1ccc(Br)cc1 | 0% (inactive) |
| CC(C)(C)NC(=O)C(c1c[nH]c2ccccc12)N(C(=O)Cn1nnc(-c2ccc(Cl)cc2)n1)c1ccccc1F (stereo unspecified) | 0.176% (inactive) |
| Nc1c(C(=O)O)cnn1-c1ccc([N+](=O)[O-])cc1 | 0.002% (inactive) |
| Cc1ccccc1NC(=O)c1cn2c(nc3ccccc32)c(C#N)c1C | 2.44% (inactive) |
| C[C@H](NC(=O)C[C@@H]1CC[C@H](NC(=O)Cc2ccccn2)[C@@H](CO)O1)c1ccccc1 | 0.048% (inactive) |
| Cc1onc(-c2c(Cl)cccc2Cl)c1-c1nc2cc(Cl)ccc2c(=O)o1 | -0.011% (inactive) |
| COc1ccc(-c2nn(-c3ccccc3)cc2C(=O)NC(=S)Nc2cc(Cl)ccc2Cl)cc1 | 2.13% (inactive) |
| CCOc1ccc(C(Nc2cccnc2)c2cc(Cl)c3cccnc3c2O)cc1 (stereo unspecified) | 0% (inactive) |
| COC(=O)c1c(NC(=O)c2ccccc2)sc2c1CC(C)(C)NC2(C)C | -0.011% (inactive) |
| COc1ccc(S(=O)(=O)Nc2cccc3c2O[C@H](CN(C)S(=O)(=O)c2cn(C)cn2)[C@H](C)CN([C@H](C)CO)C3=O)cc1 | 0.016% (inactive) |
| CC(C)C(NC(=O)c1ccc(F)cc1)C(=O)NCC1CCCO1 (stereo unspecified) | 0.01% (inactive) |
| CCn1nc(C)cc1-c1nnc(Sc2ncc([N+](=O)[O-])s2)n1C | 0% (inactive) |
| COc1cc(NS(=O)(=O)c2ccc3ccccc3c2)c2ncccc2c1 | 0% (inactive) |
| Cn1c(NC(=O)c2ccc(F)cc2)c(-c2ccccn2)c(=O)c2ccccc21 | 0.007% (inactive) |
| CCN1CCN(c2cc3nc(C)n(Cc4ccccc4)c(=O)c3cc2NC(=O)c2ccccc2F)CC1 | 0% (inactive) |
| C[C@H]1CCCCO[C@H](CN(C)S(=O)(=O)c2ccc(Cl)cc2)[C@@H](C)CN([C@@H](C)CO)C(=O)c2cc(NC(=O)Nc3ccccc3)ccc2O1 | 1.86% (inactive) |
| O=C(O)c1ccccc1C1Nc2ccccc2C(=O)N1CCCN1CCOCC1 (stereo unspecified) | -0.004% (inactive) |
| Cc1nn2c(NCCCN(C)C)c3c(nc2c1-c1ccccc1)CCCC3 | -0.007% (inactive) |
| COc1ccccc1NC(=O)N[C@H]1C=C[C@@H](CC(=O)N[C@@H](C)c2ccccc2)O[C@@H]1CO | 0.342% (inactive) |
